{"source": "patent US12704520B2", "about": "“Melanogenesis detection method using FAM86A” (Research & Business Foundation Sungkyunkwan University, priority 2019, dated 2026)", "key": {"[1]": {"test_system": "FAM86A (NM_201400.4)", "test": "shRNA mean knockdown level of FAM86A (Table 1)", "format": "cell-based", "details": "Homo sapiens FAM86A, pLKO.1 vector"}, "[2]": {"test_system": "FAM86 (NM_027446.2)", "test": "shRNA mean knockdown level of FAM86 (Table 1)", "format": "cell-based", "details": "Mus musculus FAM86, pLKO.1 vector"}, "[3]": {"test_system": "B16F10 cells", "test": "Melanogenesis induced by α-MSH (melanin content assay)", "format": "cell-based, mouse", "details": "α-MSH 100 nM, 48 hours"}, "[4]": {"test_system": "protein FAM86A", "test": "Western blotting of protein FAM86A after α-MSH treatment", "format": "cell-based, mouse", "details": "B16F10 cells, α-MSH 100 nM, 48 hours", "method": "The B16F10 cells cultured in Example 1 were seeded in 6-well plates at a density of 5×10^4 cells per well, grown for 24 hours, and then treated with α-MSH at 100 nM. The cells were incubated in an incubator under conditions of 37° C. and 5% CO2 for 48 hours, and washed with PBS twice. Subsequently, PBS was completely removed, and then 200 μL of RIPA buffer, which is a tissue lysis and staining reagent, was added to each plate, followed by harvesting cells with a scraper. Afterward, a BCA assay was conducted to quantify proteins, and electrophoresis was performed using 10% SDS-PAGE. The protein in the resulting SDS-PAGE gel was transferred onto a PVDF membrane, and the resulting PVDF membrane onto which the protein transfer had been completed was blocked in TBS-T (in 100 mM NaCl, 10 mM Tris, 0.1% (v/v) Tween-20, pH 7.4 (PBST) containing 3% BSA) at room temperature. After washing three times with TBS-T for 10 minutes, a primary antibody in 3% BSA dissolved in TBS-T was treated for 1 hour, and then sufficiently washed with TBS-T. In addition, a secondary antibody for 1 hour, and washed three times with PBS-T for 10 minutes each. Subsequently, the amount and location of a specific protein were confirmed using an ECL detection system. […]"}, "[5]": {"test_system": "tyrosinase, TYRP-1, TYRP-2, MITF and FAM86A genes", "test": "Real-time PCR of melanogenesis-associated genes and FAM86A after α-MSH treatment", "format": "cell-based, mouse", "details": "B16F10 cells, α-MSH 100 nM, 48 hours", "method": "The B16F10 cells cultured in Example 1 were seeded in 6-well plates at a density of 5×10^4 cells per well, grown for 24 hours, and then treated with α-MSH at 100 nM. The cells were incubated in an incubator under conditions of 37° C. and 5% CO2 for 48 hours. After 48 hours of incubation, the medium was completely removed, the cells were decomposed with TRIzol and neutralized using BCP. The neutralized liquid was treated with isopropanol to precipitate mRNA. Subsequently, only the precipitated mRNA was collected using a centrifuge, and used for the experiment. Intracellular mRNA was synthesized into cDNA using a cDNA kit, and the expression levels of tyrosinase, TYRP-1, TYRP-2, MITF and FAM86A genes, which are important for melanogenesis, were determined by PCR."}}, "data": [{"substance": "SEQ ID NO: 15: FAM86A shRNA (Homo sapiens, NM_201400.4), pLKO.1 vector, target sequence SEQ ID NO: 25 (DNA CCGGGCAGACATCACTGCCAAGTTACTCGAGTAACTTGGCAGTGATGTCTGCTTTTTG)", "values": [{"measurement": "Mean Knock down level", "setting": "[1]", "value": 0.6}]}, {"substance": "SEQ ID NO: 11: FAM86A shRNA (Homo sapiens, NM_201400.4), pLKO.1 vector, target sequence SEQ ID NO: 21 (DNA CCGGGCAGAAACTGTTTCCCTACGACTCGAGTCGTAGGGAAACAGTTTCTGCTTTTTG)", "values": [{"measurement": "Mean Knock down level", "setting": "[1]", "value": 0.93}]}, {"substance": "SEQ ID NO: 14: FAM86A shRNA (Homo sapiens, NM_201400.4), pLKO.1 vector, target sequence SEQ ID NO: 24 (DNA CCGGGCCAGCAGTTCTGGTTCTTAACTCGAGTTAAGAACCAGAACTGCTGGCTTTTTG)", "values": [{"measurement": "Mean Knock down level", "setting": "[1]", "value": 0.77}]}, {"substance": "SEQ ID NO: 13: FAM86A shRNA (Homo sapiens, NM_201400.4), pLKO.1 vector, target sequence SEQ ID NO: 23 (DNA CCGGGATGTTGTCATTGCAGCAGATCTCGAGATCTGCTGCAATGACAACATCTTTTTG)", "values": [{"measurement": "Mean Knock down level", "setting": "[1]", "value": 0.79}]}, {"substance": "SEQ ID NO: 12: FAM86A shRNA (Homo sapiens, NM_201400.4), pLKO.1 vector, target sequence SEQ ID NO: 22 (DNA CCGGCGAGGGAATGTCCTTCTCAATCTCGAGATTGAGAAGGACATTCCCTCGTTTTTG)", "values": [{"measurement": "Mean Knock down level", "setting": "[1]", "value": 0.84}]}, {"substance": "SEQ ID NO: 16: FAM86 shRNA (Mus musculus, NM_027446.2), pLKO.1 vector, target sequence SEQ ID NO: 26 (DNA CCGGGAGCATTCAGCCATCGTAATCCTCGAGGATTACGATGGCTGAATGCTCTTTTTG)", "values": [{"measurement": "Mean Knock down level", "setting": "[2]", "value": 0.56}]}, {"substance": "Ac-Ser-Tyr-Ser-Met-Glu-His-Phe-Arg-Trp-Gly-Lys-Pro-Val-NH2 [α-MSH]", "values": [{"measurement": "melanogenesis", "setting": "[3]", "value": "increased"}, {"measurement": "expression level of the protein FAM86A", "setting": "[4]", "value": "decreases"}, {"measurement": "expression level of FAM86A gene", "setting": "[5]", "value": "decreased"}, {"measurement": "expression level of MITF gene", "setting": "[5]", "value": "significantly increased"}, {"measurement": "expression level of TYRP-1 gene", "setting": "[5]", "value": "significantly increased"}, {"measurement": "expression level of TYRP-2 gene", "setting": "[5]", "value": "significantly increased"}, {"measurement": "expression level of tyrosinase gene", "setting": "[5]", "value": "significantly increased"}]}]}
